Data set [1] is described as follows: pH dependence of TMB solubility (saturating TMB). The class given is physicochemical. Conditions: room temperature, pH 4.0; read-out: saturating TMB concentration. Here is the method:
(§1) Regarding step (e), three independent variables (apart from temperature) most strongly influence horseradish […] activity with TMB as chromogenic substrate: TMB concentration, H2 O2 concentration, and pH. […] For relatively short assays (0-10 min.), however, suicide is not severe, and initial velocity is the most important indicator of enzyme activity. Initial velocity rises monotonically with TMB concentration, and is almost proportional to TMB concentration at a H2 O2 concentration of greater than 2 mM. The pH dependence of initial velocity at constant TMB concentration indicates an optimum pH at 4. The pH dependence of TMB solubility indicates a monotonic and increasingly steep rise as the pH is lowered from 5. […] Therefore, a pH of 3.5-4.5 is the preferred pH range for step (e), more preferably pH 4.0, if the substituted benzidine is TMB and the oxidation catalyst is horseradish peroxidase. The optimum horseradish peroxidase assay conditions are at room temperature, pH 4.0, 0.4 mM (saturating) TMB, and 2-3 mM H2 O2.

Data set [2] in a line: Solubility of TMB in a series of buffers. The class given is physicochemical. Conditions: for solubility: read-out: Solubility at 30.9 C.
Method: These are stoichiometric concentrations, uncorrected for ionization at pH 5.0. […] Each wash involved a total volume of 1.5 ml (pellet volume of about 0.3 ml) in an Eppendorf polypropylene centrifuge tube. […] At 30-60 min intervals, the crystal suspensions were spun 3-5 min at room temperature in a Fisher micro-centrifuge. […] After scanning, the solutions and pellets were returned to the equilibration tubes for renewed shaking. Repeat measurements were taken until precision within 20% was obtained. […] Care was taken to assure that solid meriquinone salt and solid TMB were present in each tube. Excess (saturating) TMB was added to suppress the dissociation of meriquinone charge-transfer complex into component quinone diimine and TMB (see FIG. 1). […] If the concentration was too high to measure undiluted with a 1 cm light path, the scan was performed on an undiluted sample with a 2 mm light path or an appropriately diluted sample (later discarded) with a 1 cm light path.
Data set [3] deals with T1, horseradish peroxidase (Armoracia rusticana, UniProt P00433).
T1 sequence (P00433 31-353): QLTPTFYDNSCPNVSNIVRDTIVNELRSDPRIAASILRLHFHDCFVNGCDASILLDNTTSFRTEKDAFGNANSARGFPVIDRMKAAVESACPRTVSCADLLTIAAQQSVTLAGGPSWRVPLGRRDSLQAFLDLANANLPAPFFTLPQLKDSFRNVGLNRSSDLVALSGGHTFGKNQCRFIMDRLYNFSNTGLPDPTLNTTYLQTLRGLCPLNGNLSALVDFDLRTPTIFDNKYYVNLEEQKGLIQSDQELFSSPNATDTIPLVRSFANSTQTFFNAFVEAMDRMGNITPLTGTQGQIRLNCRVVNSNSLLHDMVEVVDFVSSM
Put plainly: Horseradish peroxidase activity with TMB as chromogenic substrate, pH dependence. The class given is biochemical. Conditions: from pH 5.0 to pH 4.0. Here is the method: as §1

A short description of data set [4]: Crystal nucleation and filter trapping of the fumarate salt of the meriquinone of TMB. Format: physicochemical. Particulars: 10 mM Na fumarate, pH 3.92, 25 C. Here is the method:
(§2) Stock HRP solutions were prepared in 0.10M NaCl, 1.0 mM Na phosphate, pH 6.0 to be 22 ng/ml or 0.43 ng/ml in HRP, shortly before assay, HRP-catalyzed oxidation of TMB by H2 O2 was initiated by adding 20 or 2.0 μl of […] or 20 or 10 μl of 0.43 ng/ml HRP to 1.00 ml of the assay solution at 25° C. […] At the end of each reaction interval, replicate 100 μl volumes of reaction mixture were spotted on a Nuclepore polycarbonate filter (3 μm pore size) and dried by gentle suction to give deposits 3-4 mm in diameter.
The initial velocity was transformed from units of absorbance per time to reciprocal time (turnover number) by dividing by the meriquinone extinction coefficient, 3.9×10^4 M^-1 cm^-1, and by the HRP concentration. […] The transition time is the time to crystal nucleation.

Data set [5] addresses T2, horseradish peroxidase (HRP) (Armoracia rusticana, UniProt P00433).
T2 sequence (P00433 31-353): T1 sequence (P00433 31-353)
Briefly: Kinetics of TMB oxidation by H2O2 and HRP in pH 3.9 fumarate-EDTA buffer. The class given is biochemical. Conditions: 0.31 mM TMB, 3.0 mM H2O2, 10 mM Na fumarate, 1 mM EDTA, pH 3.92, 25 C. Here is the method: as §2, with “At the two lower HRP concentrations (0.22 and 0.11 pM in the cuvette), the reaction was followed for 30 minutes. At the end of” for “At the end of”
The initial velocity was transformed from units of absorbance per time to reciprocal time (turnover number) by dividing by the meriquinone extinction coefficient, 3.9×10^4 M^-1 cm^-1, and by the HRP concentration. […] The transition time is the time to crystal nucleation. […] The A652 of the 30 minute reaction mixture for 0.11 pM HRP was below 0.03, the approximate visual threshold, so that filtration trapping served to concentrate the signal to improve visibility. […] In addition, a white membrane would offer sharper visual contrast than the slightly yellow, translucent, polycarbonate. The transition time has a very shallow HRP concentration dependence, so that even lower HRP concentrations are unlikely to require assay times longer than 30 minutes in order to permit crystallization to occur. The transition time probably could be lowered by adding anionic latex microspheres which might serve to nucleate crystallization.

Data set [6] in a line: Solubilities of salts of the meriquinone of TMB (equilibration of solid salt with buffer, A650).
Method: These are stoichiometric concentrations, uncorrected for ionization at pH 5.0. […] Each wash involved a total volume of 1.5 ml (pellet volume of about 0.3 ml) in an Eppendorf polypropylene centrifuge tube. […] At 30-60 min intervals, the crystal suspensions were spun 3-5 min at room temperature in a Fisher micro-centrifuge. […] After scanning, the solutions and pellets were returned to the equilibration tubes for renewed shaking. Repeat measurements were taken until precision within 20% was obtained. […] Care was taken to assure that solid meriquinone salt and solid TMB were present in each tube. Excess (saturating) TMB was added to suppress the dissociation of meriquinone charge-transfer complex into component quinone diimine and TMB (see FIG. 1). […] These spectra contained absorbance peaks at 370 and 650 nm characteristic of meriquinone and a very small shoulder at 450 nm assigned to quinone diimine; a much larger peak near 280 nm confirmed the presence of excess TMB. […] If the concentration was too high to measure undiluted with a 1 cm light path, the scan was performed on an undiluted sample with a 2 mm light path or an appropriately diluted sample (later discarded) with a 1 cm light path.
Solubilities at 0 C. were determined for all solutions in which they were high enough for accurate measurement.
The dashed lines were visually fitted. […]

In brackets after ≈: the same amount, converted by molar mass.

Turning to `Cc1cc(-c2cc(C)c(N)c(C)c2)cc(C)c1N` [TMB, 3,3',5,5'-tetramethylbenzidine], the solubility in data set [1] was 400 µM (≈ 96.1 µg/mL); in data set [2] (aqueous buffer, acetate buffer, pH 5.0, 0.10M) it was 170 µM (≈ 40.9 µg/mL); in data set [2] (aqueous buffer, citrate buffer, pH 5.0, 0.10M) it was 170 µM (≈ 40.9 µg/mL); in data set [2] (aqueous buffer, glutarate buffer, pH 5.0, 0.10M), 170 µM (≈ 40.9 µg/mL); in data set [2] (aqueous buffer, maleate buffer, pH 5.0, 0.10M), 210 µM (≈ 50.5 µg/mL); in data set [2] (aqueous buffer, malonate buffer, pH 5.0, 0.10M), 160 µM (≈ 38.5 µg/mL). Also, the solubility in data set [2] (aqueous buffer, phosphate buffer, pH 5.0, 0.10M) stood at 160 µM (≈ 38.5 µg/mL); in data set [2] (fumarate buffer, pH 5, aqueous buffer), 160 µM (≈ 38.5 µg/mL); in data set [2] (oxalate buffer, pH 5, aqueous buffer), 160 µM (≈ 38.5 µg/mL); in data set [2] (sulfate buffer, pH 5, aqueous buffer) it was 150 µM (≈ 36.1 µg/mL). Further, the “Solubility Ratio: 30.9 C/0.0 C” value in data set [2] (acetate buffer, pH 5.0, 0.10M) was found to be 2.4; in data set [2] (citrate buffer, pH 5.0, 0.10M), 2.3; in data set [2] (fumarate buffer, pH 5.0, 0.10M), 3.9; in data set [2] (glutarate buffer, pH 5.0, 0.10M) it was 2.0; in data set [2] (maleate buffer, pH 5.0, 0.10M), 7.6; in data set [2] (malonate buffer, pH 5.0, 0.10M), 1.8. Besides, the “Solubility Ratio: 30.9 C/0.0 C” value is given as 12 in data set [2] (oxalate buffer, pH 5.0, 0.10M); 2.0 in data set [2] (phosphate buffer, pH 5.0, 0.10M); 1.9 in data set [2] (sulfate buffer, pH 5.0, 0.10M). The “increase of initial velocity at saturating TMB” value in data set [3] is “four-fold increase”. In addition, the “A652 at Transition” value in data set [4] ([HRP] 0.11 x 10^-12 M) was 0.025; in data set [4] ([HRP] 0.21 x 10^-12 M), 0.04; in data set [4] ([HRP] 1.1 x 10^-12 M), 0.08; in data set [4] ([HRP] 11 x 10^-12 M) it was 0.25-0.50. Besides, the “Transition Time (time to crystal nucleation)” value in data set [4] ([HRP] 0.11 x 10^-12 M) is 10 min; in data set [4] ([HRP] 0.21 x 10^-12 M), 10 min; in data set [4] ([HRP] 1.1 x 10^-12 M), 3 to 4 min; in data set [4] ([HRP] 11 x 10^-12 M), 1 to 2 min. Further, the Vinitial in data set [5] ([HRP] 0.11 x 10^-12 M) is listed as 4.4 × 10^-5 WA652 S^-1; in data set [5] ([HRP] 0.21 x 10^-12 M), 8.0 × 10^-5 WA652 S^-1; in data set [5] ([HRP] 1.1 x 10^-12 M), 4.1 × 10^-4 WA652 S^-1; in data set [5] ([HRP] 11 x 10^-12 M), 4.2 × 10^-3 WA652 S^-1.

Consider Maleate, for which the “Solubility Ratio: 25.2 C/0.0 C” value in data set [6] (averaged for the different stated concentrations of each salt, buffers pH 5.0 at room temperature) was 8.1. For the same compound, the “Molar Solubility in 0.1 M Anion” value in data set [6] (extrapolated, pH 5.0, 10% ethanol, 0.10M sodium acetate, 25.2 C) is on record as 4 × 10^-8 Molar.

The record behind these values is US4789630A, “Ionic compounds containing the cationic meriquinone of a benzidine” (Cetus Corporation, priority 1986, dated 1988).
